Assay [1] deals with T1, 5-ht1E receptor (Homo sapiens, UniProt P28566).
T1 construct: gene HTR1E; full-length human recombinant receptor in CHO-K1 cells (Ogeda); crude membranes
The assay is described as follows: cell-based. On the set-up: species or system CHO-K1; cAMP HTRF agonist assay, Gi coupled receptors, inhibition of stimulated cAMP. Conditions: cAMP. Here is the method:
(§1) Concentration–response curves were performed in parallel with the agonists. […] After addition of the lysis buffer and 1‐hr incubation, cAMP concentrations were estimated according to the manufacturer specification with the HTRF kit (Cisbio International, Codelet, France). In brief, increasing concentrations of agonists were added to stably transfected cells in buffer in an Optiplate (PerkinElmer Life Sciences, Massachusetts, USA). The plates were incubated, and cells were then lysed by the addition of HTRF reagents (cAMP‐Cryptate and anti‐cAMP‐d2 reagents) and diluted in lysis buffer, followed by incubation at room temperature. […] Additionally, the reference values obtained were compared to historical values obtained from the same receptor and used to validate the experimental session. […] For the new assays developed in this study (i.e., 5‐ht1E receptor), the two independent pIC50 determined must be concordant with a 1 log unit interval for the assays to be validated.

Assay [2] deals with T2, 5-HT1D receptor (Homo sapiens, UniProt P28221).
T2 construct: gene HTR1D; full-length human recombinant receptor in CHO-K1 cells (Ogeda); crude membranes
T2 sequence (P28221 whole entry): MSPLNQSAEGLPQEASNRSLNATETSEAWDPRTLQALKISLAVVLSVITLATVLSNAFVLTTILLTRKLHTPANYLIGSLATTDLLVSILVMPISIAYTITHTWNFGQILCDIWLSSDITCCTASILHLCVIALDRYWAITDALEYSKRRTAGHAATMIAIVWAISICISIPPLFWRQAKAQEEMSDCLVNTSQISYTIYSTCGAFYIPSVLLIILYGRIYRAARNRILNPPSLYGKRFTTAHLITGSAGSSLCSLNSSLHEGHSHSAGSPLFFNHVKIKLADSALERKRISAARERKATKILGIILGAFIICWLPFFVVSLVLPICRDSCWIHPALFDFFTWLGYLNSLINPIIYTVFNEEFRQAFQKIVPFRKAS
As to the kind of experiment: radioligand competition, CHO-K1 membranes. It is filed as binding. Conditions: read-out: 5-HT1D / pKi (converted). The source says: radioligand competition, CHO-K1 membranes on 5-HT1D receptor

Assay [3] concerns the target T3, 5-HT1F receptor (Homo sapiens, UniProt P30939).
T3 construct: gene HTR1F; full-length human recombinant receptor in CHO-K1 cells (Ogeda)
T3 sequence (P30939 1-366): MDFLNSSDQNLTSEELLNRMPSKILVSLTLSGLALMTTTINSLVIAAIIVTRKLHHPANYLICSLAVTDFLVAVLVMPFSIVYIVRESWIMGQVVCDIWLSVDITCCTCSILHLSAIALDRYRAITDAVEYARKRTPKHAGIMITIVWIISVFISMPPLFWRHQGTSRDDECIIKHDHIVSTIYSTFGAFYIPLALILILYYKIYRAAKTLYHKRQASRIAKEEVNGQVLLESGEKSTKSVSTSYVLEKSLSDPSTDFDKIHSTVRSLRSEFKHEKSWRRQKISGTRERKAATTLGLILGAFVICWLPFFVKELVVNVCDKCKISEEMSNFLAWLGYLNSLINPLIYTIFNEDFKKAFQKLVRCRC
The assay is described as follows: cAMP HTRF, stably transfected CHO-K1 cells. It is filed as cell-based.

Assay [4] addresses T4, 5-HT1B receptor (Homo sapiens, UniProt P28222).
T4 construct: gene HTR1B; full-length human recombinant receptor in CHO-K1 cells (Ogeda); crude membranes
As to the kind of experiment: radioligand competition, CHO-K1 membranes. Conditions: read-out: 5-HT1B / pKi (converted). It is filed as binding. The source says: radioligand competition, CHO-K1 membranes on 5-HT1B receptor

Assay [5] has as its target T3, 5-HT1F receptor. As to the kind of experiment: radioligand competition, CHO-K1 membranes. Type of assay: binding. Conditions: read-out: 5-HT1F / pKi (converted).
Assay [6] has as its target T5, 5-HT2A receptor (Homo sapiens, UniProt P28223).
T5 construct: gene HTR2A; full-length human recombinant receptor in CHO-K1 cells (Ogeda); crude membranes
As to the kind of experiment: radioligand competition, CHO-K1 membranes. Type of assay: binding. Conditions: read-out: 5-HT2A / pKi (converted). From the text:
radioligand competition, CHO-K1 membranes on 5-HT2A receptor
For orientation: Loss of bound radioactivity is the signal in a displacement assay; it reports binding, not function.

Assay [7] has as its target T6, 5-HT1A receptor (Homo sapiens, UniProt P08908).
T6 construct: gene HTR1A; full-length human recombinant receptor in CHO-K1 cells (Ogeda); crude membranes
T6 sequence (P08908 1-422): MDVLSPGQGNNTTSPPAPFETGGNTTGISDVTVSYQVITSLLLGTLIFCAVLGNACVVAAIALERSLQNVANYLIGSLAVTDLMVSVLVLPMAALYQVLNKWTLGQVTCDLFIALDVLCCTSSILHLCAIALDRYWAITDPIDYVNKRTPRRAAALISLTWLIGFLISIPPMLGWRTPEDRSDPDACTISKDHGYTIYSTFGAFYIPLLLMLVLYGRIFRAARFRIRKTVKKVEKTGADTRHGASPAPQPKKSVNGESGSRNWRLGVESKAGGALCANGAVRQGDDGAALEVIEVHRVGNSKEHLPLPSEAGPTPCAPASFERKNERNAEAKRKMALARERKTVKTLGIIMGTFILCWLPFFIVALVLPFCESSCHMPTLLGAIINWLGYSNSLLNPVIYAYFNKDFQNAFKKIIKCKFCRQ
The assay is described as follows: radioligand competition, CHO-K1 membranes. Type of assay: binding. Conditions: read-out: 5-HT1A / pKi (converted). From the text: radioligand competition, CHO-K1 membranes on 5-HT1A receptor

For assay [8], the target named is T7, 5-HT2B receptor (Homo sapiens, UniProt P41595).
T7 construct: gene HTR2B; full-length human recombinant receptor in CHO-K1 cells (Ogeda); crude membranes
T7 sequence (P41595 whole entry): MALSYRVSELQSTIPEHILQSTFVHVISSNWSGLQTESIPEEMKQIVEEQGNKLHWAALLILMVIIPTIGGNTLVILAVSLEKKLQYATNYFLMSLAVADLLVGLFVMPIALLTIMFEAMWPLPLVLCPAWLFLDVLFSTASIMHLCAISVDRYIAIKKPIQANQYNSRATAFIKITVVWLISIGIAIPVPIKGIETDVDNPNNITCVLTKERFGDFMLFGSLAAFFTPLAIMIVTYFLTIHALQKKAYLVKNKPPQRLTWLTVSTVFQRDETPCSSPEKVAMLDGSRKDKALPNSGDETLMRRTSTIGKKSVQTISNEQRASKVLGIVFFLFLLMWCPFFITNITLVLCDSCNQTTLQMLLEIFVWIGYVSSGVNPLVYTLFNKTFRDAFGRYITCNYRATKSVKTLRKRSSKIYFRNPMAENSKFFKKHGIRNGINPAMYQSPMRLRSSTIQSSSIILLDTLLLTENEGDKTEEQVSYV
The assay is described as follows: radioligand competition, CHO-K1 membranes. Type of assay: binding. Conditions: for Ki: read-out: 5-HT2B / pKi (converted). The source says: radioligand competition, CHO-K1 membranes on 5-HT2B receptor

The target of assay [9] is T4, 5-HT1B receptor. As to the kind of experiment: cell-based. On the set-up: species or system CHO-K1; cAMP HTRF agonist assay, Gi coupled receptors, inhibition of stimulated cAMP. As for the experimental part:
as §1

Assay [10] addresses T7, 5-HT2B receptor. The assay is described as follows: cell-based. On the set-up: species or system CHO-K1; IPOne HTRF agonist assay, IP1 accumulation in adherent transfected cells. As for the experimental part: The assay was performed on adherent cells. For agonist testing, the medium was removed and 20 μl of assay buffer plus 20 μl of the studied agonist or the reference agonist were added in each well. The plate was incubated for 60 min at 37°C with 5% CO2. IP1‐D2 reagent and anti‐IP1 cryptate reagents were dispensed in the wells, and IP1 concentrations were then measured following the manufacturer instructions (IPOne HTRF assay kit; Cisbio International, Codolet, France). In brief, increasing concentrations of agonists were added to stably transfected cells in buffer in an Optiplate (PerkinElmer Life Sciences). The plates were incubated, and cells were then lysed by the addition of HTRF reagents (IP1‐D2 reagent and anti‐IP1 cryptate reagents) and diluted in lysis buffer, followed by incubation at room temperature. […] Additionally, the reference values obtained were compared to historical values obtained from the same receptor and used to validate the experimental session. […] For the new assays developed in this study (i.e., 5‐ht1E receptor), the two independent pIC50 determined must be concordant with a 1 log unit interval for the assays to be validated.

The mark [11] stands for this setting: read-out: 5-HT1F / cAMP (converted).
The mark [12] stands for this setting: cAMP, read-out: 5‐HT1B / cAMP (converted).
Setting [13] is: IP, read-out: 5‐HT2B / IP (converted).

Where a name gives a salt, the structure may show the parent alone. Read-outs that look alike come from different tables or passages of the source.

T5 sequence (P28223 whole entry): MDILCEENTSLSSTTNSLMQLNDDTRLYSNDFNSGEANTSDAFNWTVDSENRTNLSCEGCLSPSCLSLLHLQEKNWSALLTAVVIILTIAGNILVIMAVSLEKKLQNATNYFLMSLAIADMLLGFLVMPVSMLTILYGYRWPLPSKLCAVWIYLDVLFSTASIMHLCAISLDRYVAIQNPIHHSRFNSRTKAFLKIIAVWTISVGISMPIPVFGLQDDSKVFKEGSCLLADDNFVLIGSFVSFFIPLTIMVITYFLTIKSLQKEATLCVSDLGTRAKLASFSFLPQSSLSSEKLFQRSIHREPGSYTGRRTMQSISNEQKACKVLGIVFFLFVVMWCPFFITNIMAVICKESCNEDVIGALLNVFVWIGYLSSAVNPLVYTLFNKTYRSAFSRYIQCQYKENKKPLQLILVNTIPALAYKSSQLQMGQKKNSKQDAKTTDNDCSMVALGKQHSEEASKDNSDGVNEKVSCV
T4 sequence (P28222 whole entry): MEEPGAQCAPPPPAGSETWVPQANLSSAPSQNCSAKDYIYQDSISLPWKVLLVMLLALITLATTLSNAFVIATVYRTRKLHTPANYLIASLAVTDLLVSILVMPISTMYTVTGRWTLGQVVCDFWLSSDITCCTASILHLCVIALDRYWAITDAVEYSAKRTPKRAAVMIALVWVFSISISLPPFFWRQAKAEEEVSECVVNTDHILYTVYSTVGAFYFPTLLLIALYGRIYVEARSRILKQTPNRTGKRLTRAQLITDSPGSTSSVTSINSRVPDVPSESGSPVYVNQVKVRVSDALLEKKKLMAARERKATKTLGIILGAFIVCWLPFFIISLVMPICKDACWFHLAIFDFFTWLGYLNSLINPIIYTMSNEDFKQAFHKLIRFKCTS
T1 sequence (P28566 whole entry): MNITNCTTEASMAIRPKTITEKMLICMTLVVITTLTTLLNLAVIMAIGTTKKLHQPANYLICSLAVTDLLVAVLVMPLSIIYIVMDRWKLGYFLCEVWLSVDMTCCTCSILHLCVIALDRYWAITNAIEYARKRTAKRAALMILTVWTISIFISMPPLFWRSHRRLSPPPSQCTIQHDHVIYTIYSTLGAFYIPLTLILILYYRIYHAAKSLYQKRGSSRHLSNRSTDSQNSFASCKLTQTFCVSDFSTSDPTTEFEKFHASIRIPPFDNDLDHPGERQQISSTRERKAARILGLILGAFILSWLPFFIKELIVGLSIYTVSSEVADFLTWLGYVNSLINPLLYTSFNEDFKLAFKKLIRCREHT

For the compound `CNC1CCc2[nH]c3ccc(C(N)=O)cc3c2C1` (racemic) [Frovatriptan racemate], in assay [1], the EC50 is 9120 nM.

Take `CNS(=O)(=O)Cc1ccc2[nH]cc(CCCN3CCN(c4ncncc4OC)CC3)c2c1` [Avitriptan fumarate]: the Ki in [2] was 0.776 nM; in [4], 1.58 nM; in [5] it was 77.6 nM; in [6], 2340 nM; in assay [7] it was 19.5 nM; in assay [8] it was 1150 nM. Also, the EC50 in [3] (setting [11]) was 81.3 nM; in assay [9] (setting [12]), 2.69 nM; in [1] it was 3020 nM; in [10] (setting [13]), 389 nM.

Consider `N#Cc1ccc(N2CCN(C(=O)COc3ccc4[nH]cc(CCN)c4c3)CC2)cc1` [Donitriptan hydrochloride], for which the Ki was 0.138 nM in assay [2]; 0.17 nM in [4]; 447 nM in assay [6]; 11.7 nM in assay [7]; 813 nM in assay [8]. In addition, the EC50 in [3] (read-out: 5-HT1A / cAMP) was greater than 10000 nM; in assay [9] it was 0.11 nM; in assay [1], greater than 10000 nM; in [10], 24.5 nM.

Take `CN1CCC[C@@H]1Cc1c[nH]c2ccc(CCS(=O)(=O)c3ccccc3)cc12` [Eletriptan hydrobromide]: the Ki is 0.102 nM in assay [2]; 0.525 nM in [4]; 17 nM in assay [5]; 1150 nM in assay [6]; 1.95 nM in assay [7]; 447 nM in assay [8]. The EC50 in assay [3] (setting [11]) is 7.41 nM; in assay [9] (setting [12]), 10 nM; in assay [1], 29.5 nM; in [10] (setting [13]) it was 155 nM.

For the compound `CN(C)[C@@H]1CCc2[nH]c3ccc(NC(=O)c4ccc(F)cc4)cc3c2C1` [LY344864 hydrochloride], the EC50 in assay [10] (setting [13]) was greater than 10000 nM.

As to `CNS(=O)(=O)CCc1ccc2[nH]cc(C3CCN(C)CC3)c2c1` [Naratriptan hydrochloride], the Ki in assay [2] is 0.501 nM; in assay [4], 0.603 nM; in [5], 1.78 nM; in assay [7], 15.1 nM. Also, the EC50 is 4.17 nM in assay [3] (setting [11]), 8.91 nM in assay [9] (setting [12]), 17.8 nM in assay [1] and greater than 10000 nM in assay [10] (setting [13]). The “5-HT2B / pKi” value in assay [8] (radioligand listed in supplement Table S1, unreliable (pIC50 printed as <[…])) is 5.08 -log M.

The record behind these values is paper PMC6965684, “Characterization of binding, functional activity, and contractile responses of the selective 5‐HT1F receptor agonist lasmiditan” (British Journal of Pharmacology, 2019).
